# Data from patent US20250281491A1, “DUAL FUNCTIONING IMMUNE MODULATING COMPOUNDS, FORMULATIONS, AND USES THEREOF” (THE REGENTS OF THE UNIVERSITY OF MICHIGAN, priority 2022, published 2025).
# Legend:
# PI3Kδ = biological target: T1, PI3Kδ (Homo sapiens, UniProt O00329); experiment: PI3K inhibition assay (BPS Bioscience kit, ADP-Glo luminescence); type: biochemical; conditions: for IC50: purified enzyme
# T1 construct: purchased BPS Bioscience (San Diego, CA, USA)
# Experimental: (§1) The IC50 of compounds to inhibit different PI3K isoforms were calculated using Prism 8.
# (§2) PI3Kα, PI3K β, PI3Kγ, and PI3Kδ binding assay kits were obtained from BPS Bioscience (San Diego, CA, USA). The assays were conducted according to manufacturer's protocols in 96-well microplates. Briefly, 5 μL PI3K lipid substrate was added to all wells. […] 10 μL of PI3Ka (0.5 ng/μL, PI3K β 4 ng/μL, PI3Kγ 4 ng/μL, or PI3Kδ 13 ng/μL) was added to initiate reaction. The plate was carefully shaken, and the reaction mixture was incubated at 30° C. for 40 minutes. Then 25 μL ADP-Glo reagent (Promega, Madison, WI, USA) was added to each well and the reactions were performed in darkness for 45 minutes. Finally, 50 μL of kinase detection reagent (Promega, Madison, WI, USA) was added to each well and the reactions were performed in darkness for 30 minutes. The luminescence of the reaction mixture was read on a Synergy 2 microplate reader (Biotek).
# PI3K β = biological target: T2, PI3K β (Homo sapiens, UniProt P42338); experiment: as above; type: biochemical; conditions: for IC50: purified enzyme
# T2 construct: purchased BPS Bioscience (San Diego, CA, USA)
# Experimental: as §1, §2
# PI3Kγ = biological target: T3, PI3Kγ (Homo sapiens, UniProt P48736); experiment: as above; type: biochemical; conditions: for IC50: purified enzyme
# T3 construct: purchased BPS Bioscience (San Diego, CA, USA)
# Experimental: as §1, §2
# PI3Kα = biological target: T4, PI3Kα (Homo sapiens, UniProt P42336); experiment: as above; type: biochemical; conditions: for IC50: purified enzyme
# T4 construct: purchased BPS Bioscience (San Diego, CA, USA)
# Experimental: as §1, §2
# STING = STING activation in THP-1 ISG Blue cells (QUANTI-Blue, OD 655); type: cell-based; conditions: 24 hours, FIG. 1
# Experimental: FIG. 1 is a graph of STING activation for different concentrations of compounds as determined by incubating with THP-1 ISG Blue cells for 24 hours, mixing with ‘QUANTI-Blue’ solution and measuring OD 655.
# FIG. 2 is a graph of STING activation for different concentrations of DMA01-166 as determined by incubating with THP-1 ISG Blue cells for 24 hours, mixing with ‘QUANTI-Blue’ solution and measuring OD 655.
# FIG. 3 is a graph of STING activation for different concentrations of MSA-2 as determined by incubating with THP-1 ISG Blue cells for 24 hours, mixing with ‘QUANTI-Blue’ solution and measuring OD 655.
# THP-1 ISG Blue cells analysis is a standard assay to test STING activation in vitro. […] Different concentrations of DMA01-166 (FIG. 2) and MSA-2 (FIG. 3) were incubated with THP-1 ISG Blue cells for 24 hours.
# [1] = tested on: mouse bone marrow derived dendritic cells (BMDCs); experiment: mIFNβ secretion from BMDCs by ELISA; type: cell-based; conditions: 24 hours; for mIFNβ secretion: BMDC supernatants, 10 μM, FIG. 6
# Experimental: FIG. 7 a graph of mIFNβ concentrations as measured by ELISA from the supernatants of mouse bone marrow derived dendritic cells (BMDCs) incubated with different concentrations of DMA01-166 for 24 hours.
# STING activation in BMDC results in mIFNβ secretion. […] Different concentrations of DMA01-166 (FIG. 7) were incubated with BMDC cells for 24 hours.
# [2] = tested on: mouse bone marrow derived dendritic cells (BMDCs); experiment: BMDC activation, upregulation of CD80 and CD86 by flow cytometry; type: cell-based; conditions: 24 hours
# Experimental: FIG. 5 are graphs of BMDC activation as measured based on the upregulation of CD80 and CD86 by flow cytometry for different concentrations of DMA01-166 incubated with mouse bone marrow derived dendritic cells (BMDCs) for 24 hours.
# STING activation induces BMDC activation. To test the ability of DMA01-166 in activating BMDC, BMDCs activation was measured based on the upregulation of CD80 and CD86 by flow cytometry. […] Different concentrations of DMA01-166 were incubated with BMDC cells for 24 hours.
# [3] = tested on: M2 polarized RAW264.7 cells; experiment: M1 macrophage ratio (CD80 and CD86, flow cytometry) from M2 polarized RAW264.7 cells; type: cell-based; conditions: 2 days; for M1 macrophage percentage among all the macrophages: 10 μM, FIG. 9
# Experimental: FIG. 10 is a graph of M1 macrophage ratio as determined by measuring CD80 and CD86 as markers for M1 macrophage by flow cytometry from M2 polarized RAW264.7 cells incubated with different concentrations of DMA01-166 for 2 days.
# Macrophage polarization effects of the dual functioning NCEs were further tested by first inducing RAW264.7 cells to M2 macrophage, and then treating with different drugs to test the M1 macrophage percentage among all the macrophages.
# [4] = tested on: KPC transgenic pancreatic cancer model; experiment: In vivo efficacy on KPC transgenic pancreatic cancer model; conditions: FIG. 13
# Experimental: FIG. 13 is a graph of the in vivo efficacy on KPC transgenic pancreatic cancer model of an exemplary albumin nanoformulations of: DMA01-166 (D166) and DMA01-166 plus PD-1 antibody (D166+PD-1) with and without paclitaxel (Nano-P).
# The in vivo efficacy of DMA01-166 and its albumin nanoformulation was tested on KPC transgenic model.
# [5] = tested on: M2 polarized RAW264.7 cells; experiment: TNFα secretion from M2 polarized RAW264.7 cells by ELISA (macrophage polarization); conditions: 10 μM, 2 days, vs M2 control group, FIG. 8
# T1 sequence (O00329 whole entry): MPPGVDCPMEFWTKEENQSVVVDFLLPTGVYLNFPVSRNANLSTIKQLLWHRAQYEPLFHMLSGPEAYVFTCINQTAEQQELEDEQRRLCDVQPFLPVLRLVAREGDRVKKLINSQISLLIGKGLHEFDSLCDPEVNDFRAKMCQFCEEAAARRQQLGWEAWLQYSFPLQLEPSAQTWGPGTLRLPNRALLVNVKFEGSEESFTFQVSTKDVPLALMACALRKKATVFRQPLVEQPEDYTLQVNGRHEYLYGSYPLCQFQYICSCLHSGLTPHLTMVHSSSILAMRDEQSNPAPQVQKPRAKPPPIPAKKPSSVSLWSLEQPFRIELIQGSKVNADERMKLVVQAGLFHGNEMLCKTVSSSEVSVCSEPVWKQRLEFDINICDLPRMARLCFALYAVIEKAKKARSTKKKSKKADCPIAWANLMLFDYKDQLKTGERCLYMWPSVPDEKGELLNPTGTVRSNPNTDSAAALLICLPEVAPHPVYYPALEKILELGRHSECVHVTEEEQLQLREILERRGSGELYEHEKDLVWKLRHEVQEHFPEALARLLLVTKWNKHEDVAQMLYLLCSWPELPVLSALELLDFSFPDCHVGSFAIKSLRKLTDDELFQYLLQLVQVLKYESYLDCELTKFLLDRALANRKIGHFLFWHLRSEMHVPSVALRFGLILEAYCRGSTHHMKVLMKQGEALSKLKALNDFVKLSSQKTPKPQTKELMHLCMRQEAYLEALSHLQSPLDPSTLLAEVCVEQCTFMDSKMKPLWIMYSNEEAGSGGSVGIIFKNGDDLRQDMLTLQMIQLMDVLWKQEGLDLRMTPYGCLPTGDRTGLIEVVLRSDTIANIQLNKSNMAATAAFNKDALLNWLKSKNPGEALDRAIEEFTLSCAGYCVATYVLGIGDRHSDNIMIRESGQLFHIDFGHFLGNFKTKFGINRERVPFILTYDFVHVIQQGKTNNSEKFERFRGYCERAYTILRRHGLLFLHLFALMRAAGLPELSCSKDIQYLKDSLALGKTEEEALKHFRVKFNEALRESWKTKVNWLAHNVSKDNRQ
# T1 sequence (P27986 whole entry partner): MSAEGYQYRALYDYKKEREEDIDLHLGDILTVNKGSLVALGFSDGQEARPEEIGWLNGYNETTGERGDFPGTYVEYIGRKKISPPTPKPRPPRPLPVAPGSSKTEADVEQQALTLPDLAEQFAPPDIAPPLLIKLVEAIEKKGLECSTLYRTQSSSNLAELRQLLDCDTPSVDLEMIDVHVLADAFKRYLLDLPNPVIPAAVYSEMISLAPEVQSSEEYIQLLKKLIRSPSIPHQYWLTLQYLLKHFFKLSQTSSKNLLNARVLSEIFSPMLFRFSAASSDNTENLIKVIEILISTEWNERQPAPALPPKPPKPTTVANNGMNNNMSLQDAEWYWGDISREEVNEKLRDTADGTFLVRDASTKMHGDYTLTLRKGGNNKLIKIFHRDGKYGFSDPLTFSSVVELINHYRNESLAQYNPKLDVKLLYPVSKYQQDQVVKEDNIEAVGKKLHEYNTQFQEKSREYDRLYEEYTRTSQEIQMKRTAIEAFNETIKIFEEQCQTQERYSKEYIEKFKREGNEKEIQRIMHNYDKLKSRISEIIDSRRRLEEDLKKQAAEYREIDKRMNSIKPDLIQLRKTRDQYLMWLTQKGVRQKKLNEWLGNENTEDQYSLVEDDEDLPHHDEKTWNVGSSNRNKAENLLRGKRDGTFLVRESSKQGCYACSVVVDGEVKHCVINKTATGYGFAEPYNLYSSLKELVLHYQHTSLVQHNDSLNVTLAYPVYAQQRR
# T4 sequence (P42336 whole entry): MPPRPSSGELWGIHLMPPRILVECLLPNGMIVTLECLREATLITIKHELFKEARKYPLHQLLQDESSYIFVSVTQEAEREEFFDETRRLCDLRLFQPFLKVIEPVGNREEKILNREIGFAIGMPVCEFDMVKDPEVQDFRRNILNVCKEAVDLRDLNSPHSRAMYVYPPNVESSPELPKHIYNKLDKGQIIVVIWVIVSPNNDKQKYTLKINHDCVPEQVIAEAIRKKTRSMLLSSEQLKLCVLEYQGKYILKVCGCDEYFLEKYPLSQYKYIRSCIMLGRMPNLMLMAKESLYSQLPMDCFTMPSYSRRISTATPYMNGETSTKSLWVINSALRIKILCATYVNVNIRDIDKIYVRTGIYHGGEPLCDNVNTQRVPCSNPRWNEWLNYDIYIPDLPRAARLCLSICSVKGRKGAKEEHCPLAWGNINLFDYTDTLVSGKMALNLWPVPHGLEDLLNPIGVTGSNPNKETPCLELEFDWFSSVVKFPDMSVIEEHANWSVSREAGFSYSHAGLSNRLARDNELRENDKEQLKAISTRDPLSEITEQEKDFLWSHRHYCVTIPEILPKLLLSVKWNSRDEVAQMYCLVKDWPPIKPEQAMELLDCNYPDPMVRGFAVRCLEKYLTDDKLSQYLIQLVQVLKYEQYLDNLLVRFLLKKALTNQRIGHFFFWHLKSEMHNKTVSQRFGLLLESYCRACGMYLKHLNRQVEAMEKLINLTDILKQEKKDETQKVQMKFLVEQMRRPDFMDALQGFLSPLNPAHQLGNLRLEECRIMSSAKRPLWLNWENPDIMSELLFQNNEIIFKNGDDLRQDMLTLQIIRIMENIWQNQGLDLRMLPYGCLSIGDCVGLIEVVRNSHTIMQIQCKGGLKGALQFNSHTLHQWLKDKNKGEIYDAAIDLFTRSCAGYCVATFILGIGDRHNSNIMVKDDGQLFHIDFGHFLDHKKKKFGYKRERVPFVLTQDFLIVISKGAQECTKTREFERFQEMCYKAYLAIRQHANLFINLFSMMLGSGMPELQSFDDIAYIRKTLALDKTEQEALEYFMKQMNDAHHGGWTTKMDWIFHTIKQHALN
# T4 sequence (P27986 whole entry partner): as the sequence (P27986 whole entry partner) above
# T3 sequence (P48736 whole entry): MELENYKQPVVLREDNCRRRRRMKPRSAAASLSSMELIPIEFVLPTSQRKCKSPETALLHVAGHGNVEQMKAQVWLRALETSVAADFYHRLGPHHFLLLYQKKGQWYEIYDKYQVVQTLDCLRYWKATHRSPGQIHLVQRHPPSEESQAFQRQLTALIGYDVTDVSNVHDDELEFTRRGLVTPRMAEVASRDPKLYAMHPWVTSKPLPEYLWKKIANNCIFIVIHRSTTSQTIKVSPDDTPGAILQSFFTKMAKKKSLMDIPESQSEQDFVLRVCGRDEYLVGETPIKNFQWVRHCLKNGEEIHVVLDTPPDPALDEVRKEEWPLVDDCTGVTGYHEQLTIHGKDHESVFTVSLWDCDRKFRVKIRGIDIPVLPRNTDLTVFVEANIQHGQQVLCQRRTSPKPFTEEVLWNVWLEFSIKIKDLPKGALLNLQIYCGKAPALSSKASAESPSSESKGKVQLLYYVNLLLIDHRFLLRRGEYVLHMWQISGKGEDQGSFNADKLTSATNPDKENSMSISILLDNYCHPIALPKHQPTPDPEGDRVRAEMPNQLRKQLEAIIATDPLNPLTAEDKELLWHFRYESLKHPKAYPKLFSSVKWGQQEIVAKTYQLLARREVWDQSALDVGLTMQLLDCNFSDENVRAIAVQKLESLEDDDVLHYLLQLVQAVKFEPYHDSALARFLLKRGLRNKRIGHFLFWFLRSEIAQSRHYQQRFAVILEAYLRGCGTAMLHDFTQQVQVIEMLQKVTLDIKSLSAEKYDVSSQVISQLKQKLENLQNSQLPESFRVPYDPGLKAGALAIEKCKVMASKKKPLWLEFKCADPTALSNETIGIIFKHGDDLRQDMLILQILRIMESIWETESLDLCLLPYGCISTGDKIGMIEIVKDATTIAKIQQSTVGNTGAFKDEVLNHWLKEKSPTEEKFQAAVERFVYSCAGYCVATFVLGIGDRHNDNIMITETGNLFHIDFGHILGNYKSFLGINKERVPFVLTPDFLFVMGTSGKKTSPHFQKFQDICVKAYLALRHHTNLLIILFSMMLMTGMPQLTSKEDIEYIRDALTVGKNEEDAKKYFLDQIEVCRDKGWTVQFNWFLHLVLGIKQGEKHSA
# T2 sequence (P42338 whole entry): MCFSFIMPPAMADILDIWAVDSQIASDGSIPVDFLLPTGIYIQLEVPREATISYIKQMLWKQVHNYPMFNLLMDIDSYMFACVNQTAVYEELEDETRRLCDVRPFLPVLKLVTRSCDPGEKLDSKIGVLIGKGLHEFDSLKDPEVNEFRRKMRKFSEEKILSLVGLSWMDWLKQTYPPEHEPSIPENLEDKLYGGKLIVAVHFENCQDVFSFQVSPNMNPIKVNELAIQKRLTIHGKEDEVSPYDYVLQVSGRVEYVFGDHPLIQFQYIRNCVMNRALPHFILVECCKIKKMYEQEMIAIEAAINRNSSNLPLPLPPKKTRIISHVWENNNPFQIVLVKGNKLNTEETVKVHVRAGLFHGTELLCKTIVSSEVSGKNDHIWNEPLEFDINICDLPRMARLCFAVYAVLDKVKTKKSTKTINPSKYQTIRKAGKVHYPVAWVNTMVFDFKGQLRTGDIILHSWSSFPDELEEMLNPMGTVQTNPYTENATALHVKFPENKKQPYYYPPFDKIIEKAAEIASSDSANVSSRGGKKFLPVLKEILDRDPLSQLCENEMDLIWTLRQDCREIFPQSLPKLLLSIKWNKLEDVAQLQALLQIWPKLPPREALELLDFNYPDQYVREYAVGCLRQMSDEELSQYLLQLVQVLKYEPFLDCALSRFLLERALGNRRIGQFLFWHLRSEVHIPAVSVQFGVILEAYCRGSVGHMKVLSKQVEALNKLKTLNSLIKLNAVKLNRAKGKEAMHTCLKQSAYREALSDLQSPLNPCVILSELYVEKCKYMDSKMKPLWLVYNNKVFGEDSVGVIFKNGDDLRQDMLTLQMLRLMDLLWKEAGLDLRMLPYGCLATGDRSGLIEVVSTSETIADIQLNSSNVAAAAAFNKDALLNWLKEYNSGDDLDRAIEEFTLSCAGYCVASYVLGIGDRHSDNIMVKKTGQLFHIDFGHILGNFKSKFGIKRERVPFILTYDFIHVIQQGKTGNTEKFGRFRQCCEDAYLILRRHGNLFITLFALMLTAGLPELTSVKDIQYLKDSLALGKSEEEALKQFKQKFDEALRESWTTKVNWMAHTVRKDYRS
# T2 sequence (P27986 whole entry partner): as the sequence (P27986 whole entry partner) above
Compound,Inhibition of PI3Kδ (in words) (PI3Kδ),IC50 (PI3Kδ) [nM],IC50 (PI3K β) [nM],Inhibition of PI3Kγ (in words) (PI3Kγ),IC50 (PI3Kγ) [nM],IC50 (PI3Kα) [nM],STING activation (interferon signal) (STING),mIFNβ secretion [1],"mIFNβ secretion at different concentrations ([1]; BMDC, FIG. 7)",Inhibition of PI3K β (in words) (PI3K β),Inhibition of PI3Kα (in words) (PI3Kα),BMDC activation at different concentrations ([2]; FIG. 5),M1 macrophage percentage among all the macrophages [3],Macrophage polarization (M1 ratio) at different concentrations ([3]; FIG. 10),Median survival [4] [days],Macrophage polarization (TNFα secretion) [5],"BMDC activation (upregulation of CD80 and CD86) ([2]; 10 μM, FIG. 4)"
CCOC(=O)Cn1cc(-c2cccc3cc([C@H](C)NC(=O)c4c(N)nn5cccnc45)n(-c4ccccc4)c(=O)c23)nn1 [DMA01-132],inhibited both PI3Kγ and PI3Kδ,0.381,374,inhibited both PI3Kγ and PI3Kδ,0.845,372,,,,,,,,,,,
"C[C@H](NC(=O)c1c(N)nn2cccnc12)c1cc2cccc(-c3cn(CC(=O)O)nn3)c2c(=O)n1-c1ccccc1 [DMA01-143, (S)-2-(4-(3-(1-(2-aminopyrazolo[1,5-a]pyrimidine-3-carboxamido)ethyl)-1-oxo-2-phenyl-1,2-dihydroisoquinolin-8-yl)-1H-1,2,3-triazol-1-yl) acetic acid]",inhibited both PI3Kγ and PI3Kδ,1.36,312,inhibited both PI3Kγ and PI3Kδ,5.34,409,,,,,,,,,,,
C[C@H](NC(=O)c1c(N)nn2cccnc12)c1cc2cccc(-c3cn(CCO)nn3)c2c(=O)n1-c1ccccc1 [DMA01-148],,15.4,548,"selectively inhibited PI3Kγ, with similar efficacy compared to IPI-549",0.864,1050,,,,,,,,,,,
"COc1cc2cc(C(=O)CCC(=O)OCCn3cc(-c4cccc5cc([C@@H](C)NC(=O)c6c(N)nn7cccnc67)n(-c6ccccc6)c(=O)c45)nn3)sc2cc1OC [DMA01-166, (R)-2-(4-(3-(1-(2-aminopyrazolo[1,5-a]pyrimidine-3-carboxamido)ethyl)-1-oxo-2-phenyl-1,2-dihydroisoquinolin-8-yl)-1H-1,2,3-triazol-1-yl)ethyl 4-(5,6-dimethoxybenzo[b]thiophen-2-yl)-4-oxobutanoate]",,1250,> 10000,,349,> 10000,enhanced interferon signal compared to control and cGAMP group,higher mIFNβ secretion compared to MSA-2,dose independent BMDC activation effect,no effect,no effect,dose independent BMDC activation effect,"higher percentage of M1 macrophage compared to IPI-549, cGAMP, ADU and MSA-2",dose independent macrophage polarization effect,157.5,,
"CCCCC/C=C/C/C=C\CCCCCCCC(=O)OCCn1cc(-c2cccc3cc([C@@H](C)NC(=O)c4c(N)nn5cccnc45)n(-c4ccccc4)c(=O)c23)nn1 [DMA01-170, 2-(4-(3-((R)-1-(2-aminopyrazolo[1,5-a]pyrimidine-3-carboxamido)ethyl)-1-oxo-2-phenyl-1,2-dihydroisoquinolin-8-yl)-1H-1,2,3-triazol-1-yl)ethyl (9Z,12E)-octadeca-9,12-dienoate]",,,,,,,,,,,,,mild effects on increasing M1 percentage,,,showed macrophage polarization effects compared to M2 control group,
"C[C@@H](NC(=O)c1c(N)nn2cccnc12)c1cc2cccc(-c3cn(CCOC(=O)[C@H](N)Cc4cn(C)c5ccccc45)nn3)c2c(=O)n1-c1ccccc1 [DMA01-173, 2-(4-(3-((R)-1-(2-aminopyrazolo[1,5-a]pyrimidine-3-carboxamido)ethyl)-1-oxo-2-phenyl-1,2-dihydroisoquinolin-8-yl)-1H-1,2,3-triazol-1-yl)ethyl 1-methyl-D-tryptophanate]",,,,,,,did not stimulate STING activation,cannot enhance mIFNβ secretion,,,,,mild effects on increasing M1 percentage,,,showed macrophage polarization effects compared to M2 control group,did not stimulate DC activation
